Article PMC9530166, “Allosteric regulation of glycogen breakdown by the second messenger cyclic di-GMP” (Nature Communications, 2022)

Legend:
His6-GlgXE378A = assay: BCA reducing-end enzyme assay, GlgXE378A; type: biochemical, Streptomyces venezuelae; conditions: 50 µM c-di-GMP, 0.05% glycogen from rabbit, 1 µM enzyme
Procedure: (§1) Fig. 2 c-di-GMP stimulates glycogen breakdown activity of GlgX in vitro. a Bicinchoninic acid (BCA) in vitro enzyme assay. The purple copper bicinchoninate complex indicating GlgX-mediated generation of reducing ends in glycogen was quantified by photometric measurements at 562 nm. A562 values were converted into reducing ends [µM glucose equivalents] based on D-glucose as a standard. Reactions contained 0.05% (w/v) glycogen from rabbit, 1 µM GlgX and increasing concentrations of c-di-GMP (0–100 µM). Source data are provided as a Source data file. b BCA assay containing 0.05% of either glycogen from rabbit, pullulan, amylopectin from maize or amylose from potato as substrates. Where appropriate, 1 µM GlgX or 50 µM c-di-GMP were added to the reaction samples. Source data are provided as a Source data file. c BCA assay as in a with or without c-di-GMP (50 µM), 0.05% glycogen from rabbit (S) and 1 µM Vnz25270, GlgX, the active site mutants GlgXD342A, GlgXE378A, GlgXD342A+E378A, or the c-di-GMP-binding mutant variant GlgXDETR49-52 as indicated. […]
(§2) Hydrolysis of carbohydrates was assessed in vitro by measuring the accumulation of reducing sugar ends using the BCA assay[42] and D-glucose as a standard for calibration (Supplementary Fig. 11). […] 125 μl sample aliquots were transferred in duplicates to a 96 well plate and the absorbance at 562 nm was measured using a plate reader.

His6-GlgX (Vnz29170) = assay: nanoDSF label-free thermal shift assay, wild-type GlgX; type: binding, Streptomyces venezuelae; conditions: 10 µM GlgX, 1 mM ligand; without ligand 51.5 °C
Procedure: Fig. 1 GlgX binds c-di-GMP. a Quantification of c-di-GMP in S. venezuelae cell extracts using LC-MS/MS. Cells were harvested during late vegetative growth (8–10 h), transition to sporulation (12–16 h), and sporulation (18–20 h). Data are presented as the mean of biological replicates ±SD (n = 3). […] Source data are provided in the Source data file. c [^32P]-c-di-GMP binds to GlgX in DRaCALA assay indicated by dark spots in the center of the nitrocellulose membrane. For competition, excess (100 µM) of unlabeled c-di-GMP, c-di-AMP, or GTP was added to the reaction containing [^32P]-c-di-GMP and GlgX.
To determine if the interaction between Vnz29170 (herein called GlgX) and c-di-GMP is direct, we purified an N-terminally His6-tagged GlgX protein and performed nano differential scanning fluorimetry (nanoDSF) thermal shift assays. […]
For label-free thermal shift assay experiments, 10 μM purified protein in 25 mM Tris pH 8, 150 mM NaCl, 2.5% (v/v) glycerol, and 5 mM MgCl2 was incubated without or with (1 mM) of nonlabeled c-di-GMP or c-di-AMP, respectively, at rt for 10 min. Reactions were subsequently analyzed in a Tycho NT.6 (NanoTemper Technologies) device with a 30 K/min thermal ramp and the internal fluorescence at 330 and 350 nm was recorded. […]

His6-GlgXDETR49-52 = assay: BCA reducing-end enzyme assay, GlgXDETR49-52; type: biochemical, Streptomyces venezuelae; conditions: 50 µM c-di-GMP, 0.05% glycogen from rabbit, 1 µM enzyme
Procedure: as §1, §2

His6-GlgX = assay: Bicinchoninic acid (BCA) reducing-end enzyme assay, wild-type GlgX; type: biochemical, Streptomyces venezuelae; conditions: for stimulation of GlgX hydrolysis of substrate: 1 µM His6-GlgX, 50 µM c-di-GMP
Excerpt: Glycogen debranching enzymes hydrolyze α-(1→6)-linked glucan branches, producing malto-oligosaccharides with reducing ends[7]. The bicinchoninic acid (BCA) assay allows accurate photometric determination of reducing ends from oligosaccharides and is based on the reduction of Cu^2+ to Cu^+. A purple copper bicinchoninate complex with an absorbance maximum at 562 nm forms from Cu^+ and bicinchoninate. […] In addition, we tested the effect of c-di-GMP on GlgX activity by using polysaccharides with different degrees of α-(1→6)-linked glucans as a substrate (Fig. 2b). While glycogen contains α-(1→6)-linked glucan branches every 8–10 residue, amylose is essentially an unbranched chain of α−1,4-linked glucose subunits. Amylopectin is composed of α−1,4-linked glucose units with α-(1→6)-linkages at intervals of ∼20 units. Pullulan is a polysaccharide polymer consisting of maltotriose units in which the three glucose units are connected by α−1,4-glycosidic bonds. Consecutive maltotriose units are linked by a α−1,6-glycosidic bond.
Fig. 2 c-di-GMP stimulates glycogen breakdown activity of GlgX in vitro. a Bicinchoninic acid (BCA) in vitro enzyme assay. The purple copper bicinchoninate complex indicating GlgX-mediated generation of reducing ends in glycogen was quantified by photometric measurements at 562 nm. A562 values were converted into reducing ends [µM glucose equivalents] based on D-glucose as a standard. Reactions contained 0.05% (w/v) glycogen from rabbit, 1 µM GlgX and increasing concentrations of c-di-GMP (0–100 µM). Source data are provided as a Source data file. b BCA assay containing 0.05% of either glycogen from rabbit, pullulan, amylopectin from maize or amylose from potato as substrates. Where appropriate, 1 µM GlgX or 50 µM c-di-GMP were added to the reaction samples. Source data are provided as a Source data file. c BCA assay as in a with or without c-di-GMP (50 µM), 0.05% glycogen from rabbit (S) and 1 µM Vnz25270, GlgX, the active site mutants GlgXD342A, GlgXE378A, GlgXD342A+E378A, or the c-di-GMP-binding mutant variant GlgXDETR49-52 as indicated. The experiment was performed three times, each time with two technical replicates. The data points represent the mean ± SD of six data points. Source data are provided as a Source data file.
Hydrolysis of carbohydrates was assessed in vitro by measuring the accumulation of reducing sugar ends using the BCA assay[42] and D-glucose as a standard for calibration (Supplementary Fig. 11). Purified enzyme was diluted to […] in 20 mM (N-2-hydroxyethylpiperazine-N′−2-ethanesulfonic acid) HEPES (pH 7.5; ionic strength, 160 mM [adjusted with NaCl]) containing 10 mM MgCl2 and […] c-di-GMP (BioLog). Samples were incubated at rt for 5 min and reactions were initiated by the addition of 0.05% of the relevant carbohydrate provided by Sigma-Aldrich: glycogen from rabbit (cat. no G8876); amylose from potato (cat. no A0512); amylopectin from maize (cat. no. 10120); and pullulan (P4516). The mixture was incubated at 37 °C in a heat block for 1 h. Next, an equal volume of BCA reagent solution (250 mM Na2CO3; 144 mM NaHCO3; 2.5 mM sodium bicinconinic acid (Sigma); 6 mM L-serine (Roth); 2.5 mM CuSO4 x 5 H2O (Roth)) was added, reactions were vortexed vigorously and incubated at 80 °C in a heat block for 30 min. Assay mixtures were then cooled to rt. 125 μl sample aliquots were transferred in duplicates to a 96 well plate and the absorbance at 562 nm was measured using a plate reader.

Which results are given for `Nc1nc2c(ncn2[C@@H]2O[C@@H]3CO[P@](=O)(O)O[C@H]4[C@@H](O)[C@H](n5cnc6c(=O)[nH]c(N)nc65)O[C@@H]4CO[P@](=O)(O)O[C@H]3[C@H]2O)c(=O)[nH]1` [c-di-GMP, bis-(3′−5′)-cyclic diguanosine monophosphate]?
stimulation of enzyme activity by c-di-GMP (His6-GlgXE378A): could not be stimulated; melting point of His6-GlgX in the presence of ligand (His6-GlgX (Vnz29170)): 55.8 °C; effect of c-di-GMP on hydrolytic activity (His6-GlgXDETR49-52): remained at basal levels; c-di-GMP concentration with saturating enzymatic activity (His6-GlgX; 0.05% glycogen from rabbit, 1 µM GlgX, c-di-GMP 3.125–100 µM): 50 µM; stimulation of GlgX hydrolysis of substrate (His6-GlgX; substrate 0.05% amylopectin): stimulates; stimulation of GlgX hydrolysis of substrate (His6-GlgX; substrate 0.05% amylose): no stimulation; stimulation of GlgX hydrolysis of substrate (His6-GlgX; substrate 0.05% glycogen): stimulates; stimulation of GlgX hydrolysis of substrate (His6-GlgX; substrate 0.05% pullulan): stimulates
